Reference: patent US10196374B2 (AstraZeneca AB, priority 2014, dated 2019)

Key:
Type in all cases: cell-based
[1] = tested on: tyrosine aminotransferase (TAT) mRNA expression in human hepatocytes; test: Tyrosine Aminotransferase (TAT) mRNA Expression In Vitro Assay in human primary hepatocytes; conditions: 18 hr, fold change vs DMSO control
Description: Tyrosine Aminotransferase (“TAT”) mRNA Expression In Vitro Assay
The impact of test compounds on hyperglycemic events were assessed by looking at changes in mRNA expression of the gene encoding tyrosine aminotransferase (TAT), which is under direct regulation of the glucocorticoid receptor in human hepatocytes.
Human cryopreserved primary hepatocytes (BioreclamationIVT, M00995-P lot EPB) were plated to 24-well collagen I-coated plates (Becton Dickinson, 354408). Cells were allowed to attach for 4 hr before being challenged with test compounds overnight (18 hr). Cells were harvested and total RNA isolated using RNeasy Plus Mini Kit (Qiagen, 74136) followed by cDNA synthesis using High Capacity cDNA reverse transcription kit (Applied Biosystems, 4368813). Real-time RT PCR was performed on an Applied Biosystems 7500 PCR cycler, using Taqman primers for TAT (Life technologies, Hs00356930_m1) and the reference gene hypoxanthine phosphoribosyltransferase 1 (Life technologies, Hs99999909_m1).
Human cryopreserved primary hepatocytes were transferred in to pre-warmed (37° C.) plating medium (BioreclamationIVT, Z990003) and diluted to 0.7×10^6 viable cells/mL. 500 µL of the cell suspension was plated to each well of a collagen I coated 24-well plate and cells were allowed to sediment and attach at 37° C. for 4 hr. After incubation, the media was gently discarded and exchanged for insulin, glucose, glutamine, pyruvate free media (BioreclamationIVT, S00304), containing compounds of interest, prednisolone at 1 μM, dissolved in DMSO (final DMSO concentration 0.01%), or DMSO alone as control. The plates were then incubated at 37° C. for an additional 18 hr. Media was discarded, and total RNA isolation (Qiagen) and cDNA synthesis (Applied Biosystems) performed according to the manufactures protocol. Real-time RT PCR was carried out using TaqMan reagents (Life technologies) on the 7500 PCR cycler, and Ct-values for TAT gene expression was normalised to the control gene and expressed as fold change compared to DMSO control using the 2^−ΔΔCt method.

[2] = tested on: release of TNFα from whole blood stimulated with LPS; test: In Vitro Human Whole Blood: inhibition of TNFα release from whole blood stimulated with LPS; conditions: LPS 30 μg/mL, 18 hr, read-out: TNFα pIC50 (converted)
Description: In Vitro Human Whole Blood
Venous blood from human donors was collected and anti-coagulated with sodium heparin and transferred to a sterile polystyrene round bottomed plate (Corning) at 190 μL per well.
Control wells received 1 μL DMSO only and the final DMSO concentration in all wells was 0.5%.
10 μL was added to each well to give a final LPS concentration of 30 μg/mL. Unstimulated controls received PBS only at 10 μL/well. The samples were, again, gently mixed, and the plates incubated overnight for 18 hr. Following incubation, the blood was centrifuged at 700×g for 5 min, and the plasma removed and transferred to freeze at −20° C. before assay for TNFα release.
TNFα protein levels were determined using an AlphaLISA hTNFa kit (Perkin Elmer) according to the manufacturer's instructions. Briefly, the samples were allowed to return to room temperature and centrifuged at 1500×g for 5 min. Samples were diluted 1/5 (5 μL sample in 20 μL AlphaLISA buffer). At the same time, a standard curve of TNFα was prepared by serial 1/3 dilutions from a stock solution (5000-2 pg/mL). 5 μL sample/standard curve were transferred to a 384-well Optiplate™, and to this was added 20 μL anti-humanTNFa acceptor beads/biotinylated antibody mix. The plate was incubated at room temperature for 60 min. After this incubation, 25 μL streptavidin donor beads were added, and the plate was incubated for a further 60 min in the dark at room temperature. […] TNFα in the samples was determined by extrapolation from the standard curve and expressed as pg/mL.
Percent inhibition was plotted against concentration, and a curve graphed using a 4-parameter curve fit (Xlfit 4.1) to determine the pIC50.

[3] = biological target: T1, human glucocorticoid receptor (GR) (Homo sapiens (Human), UniProt P04150); test: GRE Antagonist Assay (ChagoK1 18:7:2 s4/GRE reporter cells pre-stimulated with dexamethasone); conditions: for Emax at 1 µM: ChaGo-K-1, relative to full antagonist effect of Mifepristone (RU486), read-out: TA antagonist Observed max Effect at 1 μM (%); for TA antagonist pIC50: transactivation in antagonist mode, pre-stimulated with dexamethasone 70 nM
From the text: GRE Antagonist Assay A reporter cell line (ChagoK1 18:7:2 s4/GRE) was established by stable transfection of the human bronchogenic carcinoma celline, ChaGo K1 (ATCC: HTB 168) with a MMTV-GRE-LacZ reporter construct. The generated cell line allows for identification of compounds showing antagonist activity at the human glucocorticoid receptor (GR) via reduction of LacZ gene expression. Dexamethasone-activated GR binds to the Glucocorticoid Response Element (GRE) in the promoter of the LacZ gene and transcription is initiated. Antagonistic properties of compounds are assessed as beta-galactosidase intensity reduction from pre-stimulation with dexamethasone through a colour reaction (change in absorbance). Cryo-preserved ChagoK1 18:7:2 s4/GRE cells were suspended in RPMI medium with 10% FBS, 1% NEAA and 1% sodium pyruvate, and seeded as 50000 cells/200 ul/well in 96-well plates and cultured at 37° C. with 5% CO2 and 95% humidity for 24 hr. […] The reaction was then terminated by addition of 100 μl stop solution (300 mM glycine, 15 mM EDTA, pH 11.3, adjusted with NaOH). The plates were measured at 420 nm for absorbance in a SpectraMax reader (Molecular Device). […]) Where A=min Y, B=max Y, C=log IC50 and D=Slope factor

[4] = biological target: T1, human glucocorticoid receptor (GR); test: GRE Agonist Assay (ChagoK1 18:7:2 s4/GRE MMTV-GRE-LacZ reporter cell line); conditions: for Emax at 1 µM: ChaGo-K-1, relative to full agonist effect of dexamethasone, read-out: TA agonist Observed max Effect at 1 μM (%); for TA agonist pEC50: transactivation in agonist mode, ChagoK1 GRE-LacZ reporter cells, 24 hours
From the text: GRE Agonist Assay A reporter cell line (ChagoK1 18:7:2 s4/GRE) was established by stable transfection of the human bronchogenic carcinoma cell line, ChaGo K1 (ATCC: HTB 168) with a MMTV-GRE-LacZ reporter construct. The generated cell line allows for identification of compounds showing agonist activity at the human glucocorticoid receptor (GR) via induction of LacZ gene expression. Ligand-activated GR binds to the Glucocorticoid Response Element (GRE) in the promoter of the LacZ gene and transcription is initiated. The resulting beta-galactosidase activity is measured through a colour reaction (change in absorbance). Cryo-preserved ChagoK1 18:7:2 s4/GRE cells were suspended in RPMI medium with 10% FBS, 1% NEAA and 1% sodium pyruvate, and seeded as 50000 cells/200 ul/well in 96-well plates and cultured at 37° C. with 5% CO2 and 95% humidity for 24 hours. 1 μl compound was added at different concentrations to the cells and incubated for another 24 hours. […] The reaction was then terminated by addition of 100 μl stop solution (300 mM glycine, 15 mM EDTA, pH 11.3, adjusted with NaOH). […]) Where A=min Y, B=max Y, C=log EC50 and D=Slope factor

T1 sequence (P04150 whole entry): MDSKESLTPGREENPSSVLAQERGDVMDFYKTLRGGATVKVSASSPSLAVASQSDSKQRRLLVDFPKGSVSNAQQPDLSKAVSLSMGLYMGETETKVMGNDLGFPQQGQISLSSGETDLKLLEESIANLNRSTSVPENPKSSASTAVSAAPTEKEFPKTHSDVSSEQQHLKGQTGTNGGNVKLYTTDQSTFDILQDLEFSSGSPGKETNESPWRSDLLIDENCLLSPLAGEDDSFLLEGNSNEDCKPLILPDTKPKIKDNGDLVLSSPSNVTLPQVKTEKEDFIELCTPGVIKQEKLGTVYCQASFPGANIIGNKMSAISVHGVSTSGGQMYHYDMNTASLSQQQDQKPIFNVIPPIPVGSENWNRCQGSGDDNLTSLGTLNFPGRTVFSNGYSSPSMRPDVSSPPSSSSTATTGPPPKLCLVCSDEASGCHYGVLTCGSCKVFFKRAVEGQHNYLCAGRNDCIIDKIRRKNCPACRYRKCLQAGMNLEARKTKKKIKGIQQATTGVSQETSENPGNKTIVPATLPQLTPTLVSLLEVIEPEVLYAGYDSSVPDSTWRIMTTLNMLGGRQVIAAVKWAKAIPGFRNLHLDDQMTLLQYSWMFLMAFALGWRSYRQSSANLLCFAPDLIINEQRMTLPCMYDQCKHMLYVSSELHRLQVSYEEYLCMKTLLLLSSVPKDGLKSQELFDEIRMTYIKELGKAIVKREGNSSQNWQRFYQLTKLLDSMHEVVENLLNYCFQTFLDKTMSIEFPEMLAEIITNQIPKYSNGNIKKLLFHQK

Row | SMILES | IC50 [2] [nM] | Emax at 1 µM [3] [%] | TA antagonist pIC50 [3] | Emax at 1 µM [4] [%] | TA agonist pEC50 [4] | Fold Change Tyrosine Aminotransferase Gene Expression Relative to Control (1 μM) [1]
1 | CC(C)[C@H](NC(=O)C(C)(F)F)[C@H](Oc1cc2cnn(-c3ccc(=O)n(C)c3)c2cc1Cl)c1ccccc1 [Example 21, N-[(1R,2S)-1-{[6-chloro-1-(1-methyl-6-oxo-1,6-dihydropyridin-3-yl)-1H-indazol-5-yl]oxy}-3-methyl-1-phenylbutan-2-yl]-2,2-difluoropropanamide] | – | 48 | 7.3 | 42 | 8.3 | –
2 | CC(C)[C@H](NC(=O)C(F)(F)F)[C@H](Oc1cc2cnn(-c3ccc(=O)n(C)c3)c2cc1Cl)c1ccccc1 [Example 22, N-[(1R,2S)-1-{[6-chloro-1-(1-methyl-6-oxo-1,6-dihydropyridin-3-yl)-1H-indazol-5-yl]oxy}-3-methyl-1-phenylbutan-2-yl]-2,2,2-trifluoroacetamide] | – | 56 | 7.3 | 37 | 8.5 | –
3 | CCn1cc(-n2ncc3cc(O[C@H](c4ccccc4)[C@@H](NC(=O)C(C)(F)F)C(C)C)ccc32)ccc1=O [Example 23, N-[(1R,2S)-1-{[1-(1-ethyl-6-oxo-1,6-dihydropyridin-3-yl)-1H-indazol-5-yl]oxy}-3-methyl-1-phenylbutan-2-yl]-2,2-difluoropropanamide] | – | 70 | 6.4 | 14 | 7.6 | –
4 | C[C@]12C=CC(=O)C=C1CC[C@@H]1[C@@H]2[C@@H](O)C[C@@]2(C)[C@H]1CC[C@]2(O)C(=O)CO [Prednisolone, prednisolone, reference compound] | 251 | – | – | – | – | 2.8 (1.3-5.3, n = 10)

The next lines start with results.

Row | IC50 [2] [nM] | Emax at 1 µM [3] [%] | TA antagonist pIC50 [3] | Emax at 1 µM [4] [%] | TA agonist pEC50 [4] | SMILES | Fold Change Tyrosine Aminotransferase Gene Expression Relative to Control (1 μM) [1]
5 | 631 | 56 | 6.8 | 36 | 8.0 | CC(C)[C@H](NC(=O)C(C)(F)F)[C@H](Oc1ccc2c(cnn2-c2ccc(=O)n(C)c2)c1)c1ccccc1 [Example 1, 2,2-difluoro-N-[(1R,2S)-3-methyl-1-{[1-(1-methyl-6-oxo-1,6-dihydropyridin-3-yl)-1H-indazol-5-yl]oxy}-1-phenylbutan-2-yl]propanamide] | 1.0 (0.8-1.4, n = 8)
6 | 100 | 53 | 7.6 | 44 | 8.6 | CC(C)[C@H](NC(=O)C(C)(F)F)[C@H](Oc1ccc2c(cnn2-c2ccc(=O)n(C)c2)c1)c1cc(F)cc(F)c1 [Example 3, N-[(1R,2S)-1-(3,5-difluorophenyl)-3-methyl-1-{[1-(1-methyl-6-oxo-1,6-dihydropyridin-3-yl)-1H-indazol-5-yl]oxy}butan-2-yl]-2,2-difluoropropanamide] | 1.5 (1.4-1.55, n = 2)
7 | 398 | 67 | 7.3 | 24 | 8.6 | CC(C)[C@H](NC(=O)C(F)(F)F)[C@H](Oc1ccc2c(cnn2-c2ccc(=O)n(C)c2)c1)c1cccc(Cl)c1 [Example 6, N-[(1R,2S)-1-(3-chlorophenyl)-3-methyl-1-{[1-(1-methyl-6-oxo-1,6-dihydropyridin-3-yl)-1H-indazol-5-yl]oxy}butan-2-yl]-2,2,2-trifluoroacetamide] | 0.9 (n = 1)
